The source of these data is publication PMC4374917, “Identification of Small Molecules that Disrupt Signaling between ABL and Its Positive Regulator RIN1” (PLoS ONE, 2015).

Assay [1] concerns the target T1, RIN1::ABL1 interaction (RIN1-SBP / ABL1-eGFP) (Homo sapiens, UniProt P00519+Q13671).
T1 construct: The ABL1 amino terminus was amplified from AblWT1-531 (gift of Dr. John Kuriyan); TEV site-ProtA-Flag (C, cleaved yes); made in house; host or cells: Sf9 insect cells (baculovirus, pFastBac1)
As to the kind of experiment: TR-FRET assay of RIN1::ABL binding. Conditions: for IC50: 21 hits selected for cell-based assay, concentration-response curves in triplicate. The procedure:
To measure binding between purified RIN1 and ABL proteins we designed a quantitative TR-FRET based assay.
The assay readout was calculated as a ratio of donor and acceptor emissions, a measurement independent of donor and acceptor concentrations that allows for reliable comparison across assays. Assay components were mixed in kinase buffer and incubated for one hour at room temperature to allow for RIN1-Y^36 phosphorylation by ABL1 and subsequent formation of a stable divalent interaction between these proteins. Each multi-well assay plate included negative control samples (streptavidin-terbium, ABL-eGFP and ATP without RIN1-SBP). […]
(In general: TR-FRET usually uses a lanthanide donor and a delayed reading to cut background.)

Assay [2] has as its system MAPK1/3 phosphorylation in K562 cells. Nature of the assay: pMAPK in K562 (immunoblot pMAPK1/3 / MAPK1/3). It is filed as cell-based, human. Conditions: for %inhibition of MAPK1/3 phosphorylation (pMAPK/MAPK ratio): 10 μM, 4 hours at 37°C, vs DMSO control, six biological replicates. The procedure: […] Each compound was tested with six biological replicates. Band intensity was quantified using LI-COR Odyssey, and the ratio of pMAPK/MAPK signal intensity is graphed for each compound and its DMSO control. Compounds are identified by their PubChem CID number.
Membranes were scanned and signal intensity quantified using a Li-Cor Odyssey scanner. To quantify RIN1 expression, signal intensities were first normalized to the housekeeping gene, tubulin. Phospho-MAPK1/3 signal intensities were normalized to total MAPK1/3. Changes in protein expression or phosphorylation were calculated as fold-change compared to control vector.
K562 with vector or RIN1 overexpression lentivirus were previously described. To analyze MAPK1 phosphorylation, confluent K562 cells were lysed in NP-40 buffer and immunoblotted. […] Cells from each well were harvested, lysed in 400 µL NP-40 and immunoblotted.
To test each compound, 5x10^5 K562 cells were plated on a 10 cm tissue culture plate and incubated for 3 days. Cells were harvested and the volume brought to 12 mLs with fresh medium. 1 mL of the cells was distributed into each well of a 12-well tissue culture plate. In 6 of the wells, 10 µL of 1 mM compound was added per well. 10 µL of DMSO was added to the remaining wells and mixed by pipetting up and down. Cells were incubated at 37°C and 5% CO2 for 4 hours. After incubation, cells were harvested from each well, lysed in 150 µL of RIPA buffer and analyzed as above.

Assay [3] concerns K562 cells. As to the kind of experiment: K562 proliferation assay (MTS). It counts as cell-based, human. Conditions: dose-response 3.125-100 μM, 48 hours, triplicate. The procedure: K562 cells were plated 3x10^4 cells/well in 96-well plates. Cells were treated with DMSO or test compound in dose-response (100, 50, 25, 12.5, 6.25, 3.125 μM) to a final DMSO concentration of 1%. After 48 hours of incubation at 37°C, cell proliferation was assessed by MTS assay (Promega CellTiter 96 AQueous One Solution) according to the manufacturer’s protocol. Absorbance at 490nm was read on a PerkinElmer Victor3 plate reader. Experiments were performed in triplicate.
K562 cells were treated with DMSO or test compound in dose-response. After 48 hours of incubation at 37°C, cell proliferation was assessed by MTS assay. Growth in the presence of test compound was normalized to DMSO-treated K562 cells and results are presented as % of growth relative to control. Experiments were performed in triplicate. (PDF) Click here for additional data file.

The subject of assay [4] is native ABL1. On the set-up: method as in PMID 16415863, PMID 20072125. As to conditions: cited from earlier work.
Assay [5] deals with T2, ABL1-eGFP (CRK substrate) (Homo sapiens, UniProt P00519).
T2 construct: The ABL1 amino terminus was amplified from AblWT1-531 (gift of Dr. John Kuriyan); made in house; host or cells: Sf9 insect cells (baculovirus, pFastBac1)
T2 sequence (P00519 1-531 isoform P00519-2): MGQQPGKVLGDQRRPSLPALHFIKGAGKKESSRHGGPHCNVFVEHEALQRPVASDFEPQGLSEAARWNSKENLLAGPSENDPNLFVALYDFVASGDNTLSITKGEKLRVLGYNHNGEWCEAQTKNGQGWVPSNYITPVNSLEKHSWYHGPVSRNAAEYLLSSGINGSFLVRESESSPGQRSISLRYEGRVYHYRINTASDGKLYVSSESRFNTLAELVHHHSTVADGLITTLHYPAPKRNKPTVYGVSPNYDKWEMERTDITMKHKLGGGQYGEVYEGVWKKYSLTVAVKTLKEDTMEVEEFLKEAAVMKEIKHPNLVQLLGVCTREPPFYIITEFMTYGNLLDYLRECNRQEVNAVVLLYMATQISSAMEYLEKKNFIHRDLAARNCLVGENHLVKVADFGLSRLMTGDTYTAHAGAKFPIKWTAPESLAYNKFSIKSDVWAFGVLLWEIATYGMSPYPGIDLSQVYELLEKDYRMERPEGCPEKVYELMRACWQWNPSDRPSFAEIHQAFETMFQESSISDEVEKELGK
As to the kind of experiment: In vitro kinase assay for direct ABL inhibitors. It is filed as biochemical. Conditions: 10 μM test compound, 0.5 nM ABL-eGFP, 2 μM CRK, 30 minutes at 30°C, anti-phosphotyrosine immunoblot. Here is the method:
To identify these direct ABL kinase inhibitors, we screened the compounds using an in vitro kinase assay. Purified ABL1-eGFP was incubated with CRK, a well-characterized substrate, in kinase buffer containing ATP.
0.5 nM purified ABL-eGFP was mixed with 2 μM CRK and 10 μM test compound and incubated in kinase buffer for 30 minutes at 30°C. Samples were analyzed by immunoblot using anti-phosphotyrosine. All the hits were screened, and a representative immunoblot is shown here.
The kinase assay to identify direct ABL kinase inhibitors from UCLA MSSR and TSRI hits was performed as described in PubChem BioAssay AID 624303 (https://pubchem.ncbi.nlm.nih.gov/assay/assay.cgi?aid=624303). Purified His6-CrkII was expressed and purified as previously described.

Setting [6] is: S2 Table, TR-FRET assay, maximal inhibition, read-out: Max response (%).

Where two headings read alike, the source gives them in different places.

T1 sequence (P00519 1-531 isoform P00519-2): as above
T1 sequence (Q13671 whole entry): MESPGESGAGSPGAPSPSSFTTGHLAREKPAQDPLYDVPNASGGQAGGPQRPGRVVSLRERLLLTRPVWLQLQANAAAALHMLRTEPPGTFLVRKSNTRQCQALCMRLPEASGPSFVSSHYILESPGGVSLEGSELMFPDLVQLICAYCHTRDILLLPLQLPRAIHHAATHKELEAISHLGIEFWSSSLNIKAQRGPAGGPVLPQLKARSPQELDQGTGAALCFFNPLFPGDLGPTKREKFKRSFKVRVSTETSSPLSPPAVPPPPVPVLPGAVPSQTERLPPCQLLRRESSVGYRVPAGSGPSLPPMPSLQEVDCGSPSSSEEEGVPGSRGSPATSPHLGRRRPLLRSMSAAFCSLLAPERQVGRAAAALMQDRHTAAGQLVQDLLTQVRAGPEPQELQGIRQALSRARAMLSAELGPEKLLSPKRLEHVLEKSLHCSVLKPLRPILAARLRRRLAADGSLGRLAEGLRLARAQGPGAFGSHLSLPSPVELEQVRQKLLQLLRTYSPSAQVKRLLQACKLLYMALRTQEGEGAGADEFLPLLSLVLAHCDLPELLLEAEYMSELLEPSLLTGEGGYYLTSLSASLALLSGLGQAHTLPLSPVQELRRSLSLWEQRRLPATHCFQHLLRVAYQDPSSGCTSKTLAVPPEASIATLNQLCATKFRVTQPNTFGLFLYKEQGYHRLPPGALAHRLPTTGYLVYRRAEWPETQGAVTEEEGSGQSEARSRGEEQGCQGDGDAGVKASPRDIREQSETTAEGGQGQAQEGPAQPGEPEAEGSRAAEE

One may read the IC50 as the concentration that gives 50% inhibition. A high value points to weaker potency in that assay. `CN(C(=O)c1ccc(NC(=O)Cc2ccc(NC(=O)C3CCN(C(=O)c4cccc(F)c4)CC3)cc2)cc1)C1CC1` [compound 56844188]: the 50% inhibitory concentration (IC50) in assay [1] (S2 Table) was found to be 1350 nM. The Emax in assay [1] (setting [6]) was 86.8%. The “%inhibition of MAPK1/3 phosphorylation (pMAPK/MAPK ratio)” value (“%inhibition … (pMAPK/MAPK ratio)” for short) in assay [2] is 75 ± 31%. Further, the “K562 proliferation (% growth relative to DMSO control)” value in assay [3] was “decrease K562 proliferation”.

With `NC(=O)c1cccc(-c2cc(Nc3ccc(OC(F)(F)F)cc3)ncn2)c1` [GNF-2], the “activity against native ABL1” value in assay [4] is listed as “no activity”.

In assay [1] (S2 Table), `COc1ccc(C(=O)N2CCC(C(=O)Nc3ccc(CC(=O)Nc4ccc(C(=O)N(C)C5CC5)cc4)cc3)CC2)cc1` [compound 56844186] showed an IC50 of 3670 nM. In addition, in assay [1] (setting [6]), the Emax stood at 84.8%. Also, the “%inhibition … (pMAPK/MAPK ratio)” value in assay [2] stood at 75 ± 33%. Further, in assay [3], the “K562 proliferation (% growth relative to DMSO control)” value was “decrease K562 proliferation”.

`COc1ccc(CCNc2cc(=O)nc(N)[nH]2)cc1` [CID 1532134, 2-amino-6-[2-(4-methoxyphenyl)ethylamino]-1H-pyrimidin-4-one]: in assay [5], the “ABL kinase activity: CRK and ABL phosphorylation” value is given as “no activity”.

For the compound `Cc1ccc(NC(=O)c2ccc(CN3CCN(C)CC3)cc2)cc1Nc1nccc(-c2cccnc2)n1` [imatinib, reference compound], the MAPK1/3 phosphorylation signal result in assay [2] (1 μM imatinib, 1 and 4 hours at 37°C) is recorded as “rapidly decreased”.

As for `O=C(O[C@@H]1Cc2c(O)cc(O)cc2O[C@@H]1c1cc(O)c(=O)c2c(O)c(O)cc([C@H]3Oc4cc(O)cc(O)c4C[C@H]3OC(=O)c3cc(O)c(O)c(O)c3)c2c1)c1cc(O)c(O)c(O)c1` [theaflavin-3,3’-digallate], the “Activity in the TR-FRET screening assay (FRET ratio)” value in assay [1] (primary screen) is given as “decrease the FRET ratio”. The “ABL kinase activity: CRK and ABL phosphorylation” value in assay [5] is on record as “directly inhibits ABL trans-phosphorylation of CRK as well as ABL”.

Turning to `COc1cccc(CSc2nnc(CSc3nc4nc(C)cc(C)n4n3)s2)c1` [compound 1818178], the half-maximal inhibitory concentration (IC50) in assay [1] (S2 Table) is 9570 nM. The Emax in assay [1] (setting [6]) is 95.7%. In addition, in assay [2], the “%inhibition … (pMAPK/MAPK ratio)” value worked out at 25 ± 20%. Moreover, in assay [3], the “K562 proliferation (% growth relative to DMSO control)” value is “decrease K562 proliferation”.

In turn, `CN(C(=O)c1ccc(NC(=O)Cc2ccc(NC(=O)C3CCN(C(=O)c4ccccc4)CC3)cc2)cc1)C1CC1` [compound 44142745] showed a half-maximal inhibitory concentration (IC50) in assay [1] (S2 Table) of 2530 nM. In addition, the Emax in assay [1] (setting [6]) stood at 86.2%; in assay [1] (S4 Table, N-acyl piperidine-4-carboxamide series SAR, RIN1-ABL dose-response curve, read-out: Max Response (%)), 89.1%. Besides, the “%inhibition … (pMAPK/MAPK ratio)” value in assay [2] came out at 52 ± 47%. For the same compound, the “K562 proliferation (% growth relative to DMSO control)” value in assay [3] is given as “decrease K562 proliferation”.

Turning to `CN(C(=O)c1ccc(NC(=O)Cc2ccc(NC(=O)C3CCN(C(=O)c4ccc(F)cc4)CC3)cc2)cc1)C1CC1` [compound 56844185], in assay [1] (S2 Table), the IC50 stood at 1060 nM. Also, the Emax in assay [1] (setting [6]) worked out at 85.2%. In addition, the “%inhibition … (pMAPK/MAPK ratio)” value in assay [2] stood at 57 ± 13%. In assay [3], the “K562 proliferation (% growth relative to DMSO control)” value is “decrease K562 proliferation”.
